Experimental data: ChEMBL document CHEMBL5212743, “Selectivity Literature for EUbOPEN Chemogenomics Library wave 3” (2023)
pIC50, pKi: −log10 of the molar value. Each block holds one compound with its values, some of them ahead of it.

What was measured:
[1] = target: 5-hydroxytryptamine receptor 2B (Homo sapiens, UniProt P41595); assay: Selectivity interaction (Lead profiling screen (Eurofins-Panlabs)) EUB0000720a HTR2B; settings: at 10 µM
[2] = target: T1, Gamma-aminobutyric acid receptor subunit alpha-1 (Homo sapiens, UniProt P14867); assay: Selectivity interaction (GPCR panel (PDSP screen)) EUB0000720a GABRA1
T1 sequence (P14867 whole entry): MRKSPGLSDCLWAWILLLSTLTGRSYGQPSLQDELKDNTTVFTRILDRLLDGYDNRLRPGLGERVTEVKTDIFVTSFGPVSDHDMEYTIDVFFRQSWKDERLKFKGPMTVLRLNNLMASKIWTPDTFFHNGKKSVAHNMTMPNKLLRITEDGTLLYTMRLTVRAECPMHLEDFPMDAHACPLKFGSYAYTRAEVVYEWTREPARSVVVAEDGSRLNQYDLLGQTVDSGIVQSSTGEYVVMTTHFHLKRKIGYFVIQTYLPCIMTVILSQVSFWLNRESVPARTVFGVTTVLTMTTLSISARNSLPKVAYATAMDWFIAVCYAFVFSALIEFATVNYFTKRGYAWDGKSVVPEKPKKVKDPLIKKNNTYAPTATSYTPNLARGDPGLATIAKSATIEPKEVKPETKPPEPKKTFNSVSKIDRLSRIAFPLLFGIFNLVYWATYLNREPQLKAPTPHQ

[3] = target: Ribosomal protein S6 kinase alpha-3 (Homo sapiens) (UniProt P51812); assay: Selectivity interaction (KinomeScan (DiscoverX)) EUB0000303b RPS6KA3; settings: at 1 µM
[4] = target: T2, Serine/threonine-protein kinase Sgk1 (Homo sapiens) (UniProt O00141); assay: Selectivity interaction (KinomeScan (DiscoverX)) EUB0000303b SGK1; settings: at 1 µM
T2 sequence (whole entry): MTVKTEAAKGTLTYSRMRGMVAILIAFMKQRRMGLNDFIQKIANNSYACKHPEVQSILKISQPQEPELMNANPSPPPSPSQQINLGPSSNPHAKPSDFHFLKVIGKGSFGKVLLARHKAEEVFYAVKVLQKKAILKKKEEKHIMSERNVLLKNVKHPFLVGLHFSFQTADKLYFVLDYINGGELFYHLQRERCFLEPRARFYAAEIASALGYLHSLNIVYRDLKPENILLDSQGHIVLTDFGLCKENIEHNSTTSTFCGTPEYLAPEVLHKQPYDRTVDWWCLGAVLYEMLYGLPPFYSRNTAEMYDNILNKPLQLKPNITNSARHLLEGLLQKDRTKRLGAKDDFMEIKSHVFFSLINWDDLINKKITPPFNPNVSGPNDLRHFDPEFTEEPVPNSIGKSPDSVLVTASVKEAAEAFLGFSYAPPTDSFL

[5] = target: Sodium-dependent dopamine transporter (Homo sapiens, UniProt Q01959); assay: Selectivity interaction (GPCR panel (PDSP screen)) EUB0000303b SLC6A3
[6] = target: Serine/threonine-protein kinase WNK2 (Homo sapiens) (UniProt Q9Y3S1); assay: Selectivity interaction (KinomeScan (DiscoverX)) EUB0000303b WNK2; settings: at 1 µM
[7] = target: T1, Gamma-aminobutyric acid receptor subunit alpha-1; assay: Selectivity interaction (GPCR panel (PDSP screen)) EUB0000303b GABRA1
[8] = target: Voltage-gated inwardly rectifying potassium channel KCNH2 (Homo sapiens, UniProt Q12809); assay: Selectivity interaction (Ricerca panel (GPCRs, ion channels, transporters, enzymes, and proteases)) EUB0000303b KCNH2; settings: at 10 µM
[9] = target: T3, Ephrin type-B receptor 6 (Homo sapiens) (UniProt O15197); assay: Selectivity interaction (KinomeScan (DiscoverX)) EUB0000303b EPHB6; settings: at 1 µM
T3 sequence (whole entry): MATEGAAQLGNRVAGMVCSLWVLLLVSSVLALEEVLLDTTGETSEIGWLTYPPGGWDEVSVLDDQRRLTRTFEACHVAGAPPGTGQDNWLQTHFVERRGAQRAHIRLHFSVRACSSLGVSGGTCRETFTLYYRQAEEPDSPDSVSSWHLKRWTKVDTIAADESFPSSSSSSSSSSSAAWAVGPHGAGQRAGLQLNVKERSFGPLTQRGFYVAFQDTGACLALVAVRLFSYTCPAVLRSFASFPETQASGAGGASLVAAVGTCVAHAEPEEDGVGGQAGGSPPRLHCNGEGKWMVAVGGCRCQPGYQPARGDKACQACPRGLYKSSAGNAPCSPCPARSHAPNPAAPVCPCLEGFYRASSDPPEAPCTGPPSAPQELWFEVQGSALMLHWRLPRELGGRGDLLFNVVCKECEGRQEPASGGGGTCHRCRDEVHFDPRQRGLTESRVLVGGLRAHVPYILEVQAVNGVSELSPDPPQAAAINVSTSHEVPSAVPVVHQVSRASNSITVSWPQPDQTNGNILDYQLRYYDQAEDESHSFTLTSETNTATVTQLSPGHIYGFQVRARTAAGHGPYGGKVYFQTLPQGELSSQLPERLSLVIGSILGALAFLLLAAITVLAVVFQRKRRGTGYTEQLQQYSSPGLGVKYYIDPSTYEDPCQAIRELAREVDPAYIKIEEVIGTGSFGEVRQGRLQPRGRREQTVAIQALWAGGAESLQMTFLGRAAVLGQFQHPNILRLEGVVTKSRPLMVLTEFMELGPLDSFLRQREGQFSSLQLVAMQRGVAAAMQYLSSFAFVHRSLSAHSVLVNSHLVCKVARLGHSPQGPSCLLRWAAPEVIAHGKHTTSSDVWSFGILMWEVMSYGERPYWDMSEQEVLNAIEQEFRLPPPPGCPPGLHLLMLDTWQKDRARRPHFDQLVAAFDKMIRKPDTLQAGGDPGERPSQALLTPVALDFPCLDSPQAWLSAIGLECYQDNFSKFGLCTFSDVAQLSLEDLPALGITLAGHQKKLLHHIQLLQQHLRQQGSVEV

[10] = target: Beta-adrenergic receptor kinase 1 (Homo sapiens) (UniProt P25098); assay: Selectivity interaction (KinomeScan (DiscoverX)) EUB0000303b ADRBK1; settings: at 1 µM
[11] = target: T4, Serine/threonine-protein kinase LATS2 (Homo sapiens) (UniProt Q9NRM7); assay: Selectivity interaction (KinomeScan (DiscoverX)) EUB0000303b LATS2; settings: at 1 µM
T4 sequence (whole entry): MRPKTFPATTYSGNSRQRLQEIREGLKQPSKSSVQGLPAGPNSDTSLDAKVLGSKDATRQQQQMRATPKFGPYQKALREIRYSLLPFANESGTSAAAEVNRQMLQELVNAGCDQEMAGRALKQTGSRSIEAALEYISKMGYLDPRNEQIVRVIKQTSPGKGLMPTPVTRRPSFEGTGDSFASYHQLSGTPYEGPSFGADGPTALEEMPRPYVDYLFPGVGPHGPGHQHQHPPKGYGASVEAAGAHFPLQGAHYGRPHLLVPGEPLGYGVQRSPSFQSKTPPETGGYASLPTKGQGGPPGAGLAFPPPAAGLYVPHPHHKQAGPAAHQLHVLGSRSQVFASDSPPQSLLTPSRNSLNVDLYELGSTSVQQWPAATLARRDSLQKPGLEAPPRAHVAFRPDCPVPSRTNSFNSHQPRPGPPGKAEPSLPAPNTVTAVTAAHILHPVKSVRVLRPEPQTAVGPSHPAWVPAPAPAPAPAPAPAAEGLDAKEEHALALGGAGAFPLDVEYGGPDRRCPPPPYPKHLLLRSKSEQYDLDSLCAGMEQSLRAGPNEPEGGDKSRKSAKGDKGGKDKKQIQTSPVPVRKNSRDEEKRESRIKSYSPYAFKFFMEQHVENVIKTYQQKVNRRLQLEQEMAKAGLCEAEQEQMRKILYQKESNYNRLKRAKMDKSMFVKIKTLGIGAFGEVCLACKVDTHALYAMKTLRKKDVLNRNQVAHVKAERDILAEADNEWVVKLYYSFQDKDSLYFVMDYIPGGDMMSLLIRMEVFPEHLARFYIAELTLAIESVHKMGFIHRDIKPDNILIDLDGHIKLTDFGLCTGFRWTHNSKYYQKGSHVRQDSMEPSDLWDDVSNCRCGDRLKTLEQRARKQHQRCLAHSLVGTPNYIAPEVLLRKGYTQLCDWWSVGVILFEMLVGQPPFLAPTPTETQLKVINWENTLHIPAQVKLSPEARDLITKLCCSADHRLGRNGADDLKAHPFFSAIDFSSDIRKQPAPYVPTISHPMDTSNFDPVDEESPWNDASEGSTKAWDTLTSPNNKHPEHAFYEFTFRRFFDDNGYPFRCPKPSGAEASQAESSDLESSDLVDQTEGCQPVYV

[12] = target: T5, Sodium/nucleoside cotransporter 2 (Homo sapiens, UniProt O43868); assay: Selectivity interaction (Enzyme panel (Eurofins-Panlabs radioligand binding assays)) EUB0000751a SLC28A2
T5 sequence (O43868 whole entry): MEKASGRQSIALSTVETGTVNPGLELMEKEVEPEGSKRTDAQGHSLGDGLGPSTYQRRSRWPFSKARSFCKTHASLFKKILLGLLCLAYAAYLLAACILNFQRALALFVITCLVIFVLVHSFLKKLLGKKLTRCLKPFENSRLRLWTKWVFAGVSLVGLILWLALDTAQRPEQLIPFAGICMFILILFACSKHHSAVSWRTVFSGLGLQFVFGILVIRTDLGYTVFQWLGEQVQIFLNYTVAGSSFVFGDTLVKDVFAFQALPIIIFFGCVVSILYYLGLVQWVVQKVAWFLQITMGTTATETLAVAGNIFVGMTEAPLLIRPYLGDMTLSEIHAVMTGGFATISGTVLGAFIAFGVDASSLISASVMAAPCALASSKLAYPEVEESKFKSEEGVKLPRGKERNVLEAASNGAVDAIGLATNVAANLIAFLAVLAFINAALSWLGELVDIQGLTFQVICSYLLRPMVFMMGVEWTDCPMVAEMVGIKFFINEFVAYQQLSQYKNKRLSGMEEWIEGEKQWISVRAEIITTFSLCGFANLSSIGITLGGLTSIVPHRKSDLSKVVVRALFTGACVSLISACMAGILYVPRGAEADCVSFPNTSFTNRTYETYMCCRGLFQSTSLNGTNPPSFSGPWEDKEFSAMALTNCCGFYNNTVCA

[13] = target: T5, Sodium/nucleoside cotransporter 2; assay: Selectivity interaction (Enzyme panel (Eurofins-Panlabs enzyme assay)) EUB0000751a SLC28A2
[14] = target: cGMP-inhibited 3',5'-cyclic phosphodiesterase 3A (Homo sapiens, UniProt Q14432); assay: Selectivity interaction (PDE panel (enzymatic activity assay)) EUB0000751a PDE3A
[15] = target: High affinity 3',5'-cyclic-AMP phosphodiesterase 7A (Homo sapiens, UniProt Q13946); assay: Selectivity interaction (PDE panel (enzymatic activity assay)) EUB0000751a PDE7A
[16] = target: RAC-gamma serine/threonine-protein kinase (Homo sapiens) (UniProt Q9Y243); assay: Selectivity interaction (KinomeScan (DiscoverX)) EUB0000751a AKT3; settings: at 100 nM
[17] = target: T1, Gamma-aminobutyric acid receptor subunit alpha-1; assay: Selectivity interaction (GPCR panel (PDSP screen)) EUB0000719a GABRA1
[18] = target: Glutamate receptor ionotropic, NMDA 1 (Homo sapiens, UniProt Q05586); assay: Selectivity interaction (PRESTO-Tango GPCR-ome screening) EUB0000539a GRIN1

Voltage-gated inwardly rectifying potassium channel KCNH2, sequence (Q12809 whole entry): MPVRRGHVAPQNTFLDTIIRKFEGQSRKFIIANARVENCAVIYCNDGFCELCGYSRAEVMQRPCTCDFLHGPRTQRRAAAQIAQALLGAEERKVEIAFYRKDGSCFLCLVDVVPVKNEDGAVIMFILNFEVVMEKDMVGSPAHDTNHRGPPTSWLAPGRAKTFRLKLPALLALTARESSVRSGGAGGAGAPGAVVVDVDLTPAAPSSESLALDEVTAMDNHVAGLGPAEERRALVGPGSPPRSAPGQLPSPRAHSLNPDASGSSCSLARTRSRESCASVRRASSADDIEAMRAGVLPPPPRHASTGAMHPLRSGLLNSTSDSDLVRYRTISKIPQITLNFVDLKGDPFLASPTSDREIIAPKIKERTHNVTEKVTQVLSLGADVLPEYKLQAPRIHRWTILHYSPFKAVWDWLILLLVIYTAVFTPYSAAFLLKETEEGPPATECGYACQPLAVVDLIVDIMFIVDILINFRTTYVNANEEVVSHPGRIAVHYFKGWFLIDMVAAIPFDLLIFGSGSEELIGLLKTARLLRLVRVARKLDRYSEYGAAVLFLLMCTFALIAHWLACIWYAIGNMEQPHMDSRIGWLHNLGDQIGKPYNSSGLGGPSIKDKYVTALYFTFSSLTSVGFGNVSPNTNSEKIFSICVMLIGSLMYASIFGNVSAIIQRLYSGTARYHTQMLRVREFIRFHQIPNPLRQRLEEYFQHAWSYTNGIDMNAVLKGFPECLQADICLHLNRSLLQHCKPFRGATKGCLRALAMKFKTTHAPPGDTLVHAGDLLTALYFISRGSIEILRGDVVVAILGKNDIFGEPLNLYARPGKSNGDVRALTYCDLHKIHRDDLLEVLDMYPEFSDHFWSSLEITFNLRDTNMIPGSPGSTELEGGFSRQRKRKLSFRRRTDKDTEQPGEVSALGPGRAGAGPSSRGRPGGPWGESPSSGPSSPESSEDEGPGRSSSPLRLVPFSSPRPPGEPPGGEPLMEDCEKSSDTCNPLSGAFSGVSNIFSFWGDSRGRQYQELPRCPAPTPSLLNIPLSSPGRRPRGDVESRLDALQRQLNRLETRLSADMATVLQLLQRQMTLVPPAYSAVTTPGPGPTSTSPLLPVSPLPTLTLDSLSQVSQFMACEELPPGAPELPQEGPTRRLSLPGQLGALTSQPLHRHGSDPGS
High affinity 3',5'-cyclic-AMP phosphodiesterase 7A, sequence (Q13946 whole entry): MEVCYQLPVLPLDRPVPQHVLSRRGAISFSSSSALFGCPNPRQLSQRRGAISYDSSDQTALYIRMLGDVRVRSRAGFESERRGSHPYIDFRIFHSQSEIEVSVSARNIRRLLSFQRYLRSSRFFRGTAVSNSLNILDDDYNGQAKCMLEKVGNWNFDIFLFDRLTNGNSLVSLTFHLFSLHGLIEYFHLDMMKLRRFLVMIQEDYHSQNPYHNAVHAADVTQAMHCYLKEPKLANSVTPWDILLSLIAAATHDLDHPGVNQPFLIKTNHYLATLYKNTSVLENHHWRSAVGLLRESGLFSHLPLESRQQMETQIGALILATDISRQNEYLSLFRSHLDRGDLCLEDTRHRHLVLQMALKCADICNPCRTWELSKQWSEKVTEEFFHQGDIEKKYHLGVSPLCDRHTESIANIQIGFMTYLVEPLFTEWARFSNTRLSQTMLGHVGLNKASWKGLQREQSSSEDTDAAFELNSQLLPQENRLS
Beta-adrenergic receptor kinase 1 (Homo sapiens), sequence (P25098 whole entry): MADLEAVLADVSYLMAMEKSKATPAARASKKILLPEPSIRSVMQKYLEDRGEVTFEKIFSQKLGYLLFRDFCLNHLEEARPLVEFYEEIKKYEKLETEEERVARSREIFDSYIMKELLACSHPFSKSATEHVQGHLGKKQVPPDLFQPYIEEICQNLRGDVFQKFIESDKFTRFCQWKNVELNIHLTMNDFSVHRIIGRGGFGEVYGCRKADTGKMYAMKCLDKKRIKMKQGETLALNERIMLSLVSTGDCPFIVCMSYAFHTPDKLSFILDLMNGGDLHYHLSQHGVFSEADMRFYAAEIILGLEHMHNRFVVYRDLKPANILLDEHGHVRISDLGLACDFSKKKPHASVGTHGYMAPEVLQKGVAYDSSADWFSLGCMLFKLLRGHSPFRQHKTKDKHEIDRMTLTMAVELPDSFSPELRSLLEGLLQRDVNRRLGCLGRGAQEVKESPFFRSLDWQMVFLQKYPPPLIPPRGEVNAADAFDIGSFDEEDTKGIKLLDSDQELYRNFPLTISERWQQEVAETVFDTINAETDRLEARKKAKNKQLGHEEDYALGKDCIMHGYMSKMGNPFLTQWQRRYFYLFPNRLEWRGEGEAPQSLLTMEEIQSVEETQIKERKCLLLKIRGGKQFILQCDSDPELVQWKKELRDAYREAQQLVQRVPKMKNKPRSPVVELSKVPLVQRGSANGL
5-hydroxytryptamine receptor 2B, sequence (P41595 whole entry): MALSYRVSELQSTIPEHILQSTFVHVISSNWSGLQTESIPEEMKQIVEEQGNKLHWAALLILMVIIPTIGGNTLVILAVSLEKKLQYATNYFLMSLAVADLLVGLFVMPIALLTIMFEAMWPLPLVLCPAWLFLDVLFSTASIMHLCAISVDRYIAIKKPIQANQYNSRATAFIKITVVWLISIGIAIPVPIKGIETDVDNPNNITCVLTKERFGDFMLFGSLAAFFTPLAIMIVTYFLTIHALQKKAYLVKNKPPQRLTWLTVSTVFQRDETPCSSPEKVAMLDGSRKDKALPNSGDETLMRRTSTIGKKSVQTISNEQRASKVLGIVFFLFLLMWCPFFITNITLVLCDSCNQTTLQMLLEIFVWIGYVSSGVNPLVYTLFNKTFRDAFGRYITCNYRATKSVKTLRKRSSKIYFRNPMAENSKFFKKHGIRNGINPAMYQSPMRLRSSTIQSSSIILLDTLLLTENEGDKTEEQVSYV
cGMP-inhibited 3',5'-cyclic phosphodiesterase 3A, sequence (Q14432 whole entry): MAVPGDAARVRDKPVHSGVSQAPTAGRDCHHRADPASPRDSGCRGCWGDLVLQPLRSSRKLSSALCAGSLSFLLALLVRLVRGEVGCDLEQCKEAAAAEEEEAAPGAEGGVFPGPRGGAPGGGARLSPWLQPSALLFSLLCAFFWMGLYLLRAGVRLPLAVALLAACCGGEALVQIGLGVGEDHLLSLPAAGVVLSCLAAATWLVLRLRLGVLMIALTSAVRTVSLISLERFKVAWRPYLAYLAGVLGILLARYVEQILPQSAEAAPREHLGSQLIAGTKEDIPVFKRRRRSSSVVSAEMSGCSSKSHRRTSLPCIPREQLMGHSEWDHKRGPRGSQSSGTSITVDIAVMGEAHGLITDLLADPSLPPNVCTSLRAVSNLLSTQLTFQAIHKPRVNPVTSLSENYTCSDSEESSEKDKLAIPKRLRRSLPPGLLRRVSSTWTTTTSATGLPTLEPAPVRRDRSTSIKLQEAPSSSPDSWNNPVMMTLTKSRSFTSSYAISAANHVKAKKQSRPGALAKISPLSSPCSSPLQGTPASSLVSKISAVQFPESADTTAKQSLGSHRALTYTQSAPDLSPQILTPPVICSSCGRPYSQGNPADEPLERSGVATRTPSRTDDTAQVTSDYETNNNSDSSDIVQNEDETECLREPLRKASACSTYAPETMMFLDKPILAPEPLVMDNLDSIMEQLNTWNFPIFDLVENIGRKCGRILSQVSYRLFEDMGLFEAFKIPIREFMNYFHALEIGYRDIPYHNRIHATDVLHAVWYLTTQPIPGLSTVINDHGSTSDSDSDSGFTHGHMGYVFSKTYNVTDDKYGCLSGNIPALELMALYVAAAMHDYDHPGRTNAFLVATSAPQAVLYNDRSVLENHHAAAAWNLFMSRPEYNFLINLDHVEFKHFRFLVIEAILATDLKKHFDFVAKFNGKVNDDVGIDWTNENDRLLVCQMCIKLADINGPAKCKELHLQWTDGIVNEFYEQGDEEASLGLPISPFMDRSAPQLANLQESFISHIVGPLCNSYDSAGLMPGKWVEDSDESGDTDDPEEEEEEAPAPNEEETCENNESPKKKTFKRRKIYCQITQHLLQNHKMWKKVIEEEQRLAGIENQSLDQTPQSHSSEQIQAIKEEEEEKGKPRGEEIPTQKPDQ
RAC-gamma serine/threonine-protein kinase (Homo sapiens), sequence (Q9Y243 whole entry): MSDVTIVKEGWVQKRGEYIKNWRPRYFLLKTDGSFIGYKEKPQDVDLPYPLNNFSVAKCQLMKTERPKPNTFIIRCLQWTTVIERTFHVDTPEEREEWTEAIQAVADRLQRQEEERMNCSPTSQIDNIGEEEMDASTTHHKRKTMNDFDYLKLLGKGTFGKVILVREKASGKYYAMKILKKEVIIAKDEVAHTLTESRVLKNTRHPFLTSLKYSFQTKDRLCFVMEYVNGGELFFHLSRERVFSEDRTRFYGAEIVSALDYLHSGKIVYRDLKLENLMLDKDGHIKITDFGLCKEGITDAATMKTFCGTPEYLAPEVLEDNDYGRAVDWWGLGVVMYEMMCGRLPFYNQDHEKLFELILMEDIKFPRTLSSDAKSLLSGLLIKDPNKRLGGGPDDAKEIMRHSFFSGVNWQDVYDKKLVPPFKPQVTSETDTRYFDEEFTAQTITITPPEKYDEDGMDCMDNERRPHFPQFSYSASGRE
Sodium-dependent dopamine transporter, sequence (Q01959 whole entry): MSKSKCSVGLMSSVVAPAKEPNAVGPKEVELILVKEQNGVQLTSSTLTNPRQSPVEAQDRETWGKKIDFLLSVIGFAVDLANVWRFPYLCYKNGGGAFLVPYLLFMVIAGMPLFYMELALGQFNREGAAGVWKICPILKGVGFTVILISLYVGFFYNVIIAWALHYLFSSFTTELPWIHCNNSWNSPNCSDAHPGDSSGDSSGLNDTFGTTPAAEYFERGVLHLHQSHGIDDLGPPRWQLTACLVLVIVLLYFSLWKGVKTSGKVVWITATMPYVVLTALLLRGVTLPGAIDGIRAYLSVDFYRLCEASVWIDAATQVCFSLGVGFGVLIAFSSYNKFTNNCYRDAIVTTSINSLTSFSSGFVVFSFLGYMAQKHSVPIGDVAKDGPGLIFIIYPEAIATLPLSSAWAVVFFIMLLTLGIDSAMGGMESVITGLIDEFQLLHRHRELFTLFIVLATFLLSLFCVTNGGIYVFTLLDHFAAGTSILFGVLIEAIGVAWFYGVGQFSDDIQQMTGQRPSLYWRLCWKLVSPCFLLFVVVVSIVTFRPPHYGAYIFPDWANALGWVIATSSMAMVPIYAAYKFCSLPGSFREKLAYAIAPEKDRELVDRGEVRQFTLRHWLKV

- % of control [1]: 63%
- pKi [2]: 6.46
SMILES: CN1C(=O)[C@@H](N2CCc3c(nn(Cc4ccccc4)c3Br)C2=O)COc2ccccc21 [TP-030-2]

- % of control [3]: 48%
- % of control [4]: 49%
- pKi [5]: 5.77
- % of control [6]: 41%
- pKi [7]: 5.34
- % of control [9]: 36%
- % of control [10]: 42%
- % of control [11]: 26%
SMILES: Cc1nc(N2CC[C@H](O)C2)ncc1-c1cc(C(F)(F)F)cc2[nH]ncc12
- % of inhibition [8]: 1%

- pIC50 [12]: 5.79
- pIC50 [13]: 5.79
- pKi [14]: < 2.48
- pKi [15]: < 4.95
- % of control [16]: 47%
SMILES: COCCOc1nc(-c2ccc(Cl)nc2)nc2c1CN(C(=O)c1ncn3ccccc13)CC2 [THPP-1]

- pKi [17]: 6.43
SMILES: CN1C(=O)[C@@H](N2CCc3cn(Cc4ccccc4)nc3C2=O)COc2ccccc21 [TP-030-1]

- pKi [18]: 6.00
SMILES: Cc1ccc2nc(CNCCCOc3ccccc3)cc(O)c2c1 [UCSF924]
